{
  "source": "patent US20090203685A1",
  "about": "“ANTI-PROLIFERATIVE COMPOUNDS FROM A 3-ARYL-COUMARINE OR 3-ARYL-QUINOLIN-2-ONE AND USES THEREOF” (EOS (ETHICAL ONCOLOGY SCIENCE) S.P.A., priority 2006, published 2009)",
  "key": {"[1]": {"assay": "Viability (propidium iodide staining), PC3", "format": "cell-based", "conditions": "human, PC3 cells (prostate), 500 nM", "procedure": "(§1) Propidium iodide (PI) cannot normally cross the cell membrane; it is thus excluded by viable cells but not from dying or dead cells, having a damaged membrane, where it intercalates into double-stranded nucleic acids and fluoresces when excited at 488 nm.\n(§2) The cells are pelleted by gentle centrifugation 1200 rpm/5 min/4° C., then the supernatant is discarded and replaced by 1 mL of fresh medium. One hundred microliters of propidium iodide (40 μg/mL) are added to 400 μL of the cell suspension in a FACS tube and viability is measured by flow cytometry as the percentage of cells whose fluorescence recorded on FL-3 channel is comprised between 0 and 2.\n(§3) Viability and cell cycle profile, tested with compound (01), at 500 nM: […]"}, "[2]": {"assay": "Viability (propidium iodide staining), U937", "format": "cell-based", "conditions": "human, U937 cells (myeloid), 500 nM", "procedure": "as §1, §2, §3"}, "[3]": {"assay": "Viability (propidium iodide staining), CEM", "format": "cell-based", "conditions": "human, CEM cells (lymphoid), 500 nM", "procedure": "as §1, §2, §3"}, "[4]": {"test_system": "prostate and lung tumor cells", "assay": "Viability and cell cycle profile, conclusion for prostate and lung tumor cells", "format": "cell-based", "conditions": "500 nM; cell cycle arrest at entry into mitosis", "procedure": "as §1, §2\nThe cells are pelleted by gentle centrifugation 1200 rpm/5 min/4° C., then the supernatant is discarded and the cells are fixed with 1 mL of PBS/Ethanol 70% overnight at −20° C. The tubes are then centrifuged during 5 minutes at 1200 rpm and the supernatant is removed. The pellet is then re-suspended in 450 μL of PBS before 50 μL of RNAse (1 mg/mL) and 5 μL of propidium iodide (2 mg/mL) are added. Each tube is left 30 minutes at 37° C. and immediately analysed by flow cytometry after incubation.\nas §3"}, "[5]": {"biological_target": "T1, interaction between 6×His-Bcl-xL and GST-BF8 (Homo sapiens, UniProt Q07817)", "T1 construct": "made in house; host or cells: E. coli", "T1 sequence (Q07817 whole entry)": "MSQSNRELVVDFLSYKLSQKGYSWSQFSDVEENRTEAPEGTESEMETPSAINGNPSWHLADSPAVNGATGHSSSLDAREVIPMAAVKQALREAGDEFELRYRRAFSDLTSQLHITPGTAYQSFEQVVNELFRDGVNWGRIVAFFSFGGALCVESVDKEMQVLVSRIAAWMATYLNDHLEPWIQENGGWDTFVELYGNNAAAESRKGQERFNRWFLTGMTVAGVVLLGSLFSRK", "assay": "Pull down assay, Bcl-xL/BF8 in vitro interaction", "format": "binding", "conditions": "50 μM, 5% DMSO; Western blot", "procedure": "FIG. 3: Inhibition of the interaction between Bcl-xL and BF8, a peptide aptamer that targets the hydrophobic groove of BCL-2 family members. […]\nC+: 6×His-Bcl-xL captured by GST-BF8, in presence of 5% DMSO. (02): 6×His-Bcl-xL captured by GST-BF8, in presence of 50 μM of compound 02 (in 5% DMSO). (01): 6×His-Bcl-xL captured by GST-BF8, in presence of 50 μM of compound 01 (in 5% DMSO).\nA peptide aptamer (dubbed BF8) has been selected against the anti-apoptotic protein Bfl1, member of the BCL-2 family. […] Two lines of evidence indicate that BF8 binds the hydrophobic groove of anti-apoptotic BCL-2-like proteins. First, the amino-acid sequence of its variable region bears similarities with the sequence of the BH3 domains of pro-apoptotic members of the BCL-2 family (such as Bak or Bax), known to bind the anti-apoptotic proteins via this hydrophobic groove. Second, BF8 no longer binds a mutated variant of Bfl-1 that bears an amino-acid substitution within the said hydrophobic groove.\nA Bcl-xL/BF8 in vitro interaction assay was developed to examine the capacity of the compounds of the invention to disrupt this interaction by competition with the peptide aptamer. 6×His-Bcl-xL and GST-BF8 recombinant fusion proteins were expressed in E. coli and purified using affinity chromatography. […]"}},
  "data": [
    {"smiles": "COc1cc(NC(=S)NC(=O)/C=C/c2ccco2)ccc1-c1cc2ccccc2oc1=O", "note": "[Compound 01, (2E)-3-(2-furyl)-N-({[3-methoxy-4-(2-oxo-2H-chromen-3-yl)phenyl]amino}carbonothioyl)acrylamide]", "values": [
      {"measurement": "viability at 48 h, 0.5 µM", "setting": "[1]; 48 h", "result": 92, "unit": "%"},
      {"measurement": "viability at 72 h, 0.5 µM", "setting": "[1]; 72 h", "result": 90, "unit": "%"},
      {"measurement": "viability at 48 h, 0.5 µM", "setting": "[2]; 48 h", "result": 25, "unit": "%"},
      {"measurement": "viability at 72 h, 0.5 µM", "setting": "[2]; 72 h", "result": 6, "unit": "%"},
      {"measurement": "viability at 48 h, 0.5 µM", "setting": "[3]; 48 h", "result": 10, "unit": "%"},
      {"measurement": "viability at 72 h, 0.5 µM", "setting": "[3]; 72 h", "result": 2, "unit": "%"},
      {"measurement": "Effect on prostate and lung tumor cells", "setting": "[4]", "result": "cytostatic effect"},
      {"measurement": "Inhibition of the in vitro interaction between 6×His-Bcl-xL and GST-BF8", "setting": "[5]", "result": "inhibit"}
    ]}
  ]
}
